Results reported in ChEMBL document CHEMBL1145498, “A systematic interaction map of validated kinase inhibitors with Ser/Thr kinases” (Proc Natl Acad Sci U S A, 2007).

Molecular target: Serine/threonine-protein kinase 26 (Homo sapiens) (UniProt Q9P289)
Sequence (Q9P289 2-416 limits assumed): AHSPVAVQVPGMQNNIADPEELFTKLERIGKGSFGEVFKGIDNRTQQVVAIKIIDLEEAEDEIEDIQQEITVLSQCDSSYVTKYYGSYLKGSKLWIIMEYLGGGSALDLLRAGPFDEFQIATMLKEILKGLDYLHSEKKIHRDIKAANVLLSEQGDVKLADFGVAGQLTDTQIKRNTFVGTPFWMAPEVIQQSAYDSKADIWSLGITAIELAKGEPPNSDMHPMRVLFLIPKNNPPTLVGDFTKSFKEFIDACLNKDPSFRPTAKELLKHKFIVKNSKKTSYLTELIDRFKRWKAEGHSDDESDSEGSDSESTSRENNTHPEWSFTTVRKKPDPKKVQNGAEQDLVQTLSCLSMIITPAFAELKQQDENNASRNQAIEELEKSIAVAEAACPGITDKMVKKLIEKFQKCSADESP

ΔTm [°C] | Compound
0.9 | O=C(O)c1cc(NCc2cc(O)ccc2O)ccc1O
1 | Nc1n[nH]c2nnc(-c3c(-c4ccccc4)nn4ccccc34)cc12

Molecular target: T1, Lymphokine-activated killer T-cell-originated protein kinase (Homo sapiens) (UniProt Q96KB5)
T1 sequence (whole entry): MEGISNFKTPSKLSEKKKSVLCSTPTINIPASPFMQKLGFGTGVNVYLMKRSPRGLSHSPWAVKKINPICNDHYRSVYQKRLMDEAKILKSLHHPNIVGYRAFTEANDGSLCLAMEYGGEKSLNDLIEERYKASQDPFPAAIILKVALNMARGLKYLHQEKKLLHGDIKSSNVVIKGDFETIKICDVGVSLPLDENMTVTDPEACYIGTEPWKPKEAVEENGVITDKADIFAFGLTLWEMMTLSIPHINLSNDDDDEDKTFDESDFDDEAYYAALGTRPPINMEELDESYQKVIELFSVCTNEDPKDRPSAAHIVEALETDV

Compound | ΔTm [°C]
O=C(O)c1cc(NCc2cc(O)ccc2O)ccc1O | 0
Nc1n[nH]c2nnc(-c3c(-c4ccccc4)nn4ccccc34)cc12 | 0.2

Molecular target: T2, Serine/threonine-protein kinase 17A (Homo sapiens) (UniProt Q9UEE5)
T2 sequence (whole entry): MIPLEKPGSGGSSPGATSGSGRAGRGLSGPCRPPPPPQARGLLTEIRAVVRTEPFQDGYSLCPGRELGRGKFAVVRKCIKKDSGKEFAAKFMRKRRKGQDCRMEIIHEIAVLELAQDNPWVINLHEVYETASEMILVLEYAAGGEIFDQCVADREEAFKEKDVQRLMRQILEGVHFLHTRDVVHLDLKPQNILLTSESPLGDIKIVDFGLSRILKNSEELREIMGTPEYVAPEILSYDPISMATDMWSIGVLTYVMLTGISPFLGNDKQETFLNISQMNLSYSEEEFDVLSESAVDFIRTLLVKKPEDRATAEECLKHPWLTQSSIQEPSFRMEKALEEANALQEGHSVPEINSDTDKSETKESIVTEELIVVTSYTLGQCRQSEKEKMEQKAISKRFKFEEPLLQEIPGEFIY

ΔTm [°C] | Compound
0.1 | O=C(O)c1cc(NCc2cc(O)ccc2O)ccc1O
0.8 | Nc1n[nH]c2nnc(-c3c(-c4ccccc4)nn4ccccc34)cc12

Molecular target: Serine/threonine-protein kinase pim-3 (Homo sapiens) (UniProt Q86V86)

ΔTm [°C] | Compound
-0.2 | O=C(O)c1cc(NCc2cc(O)ccc2O)ccc1O
1.2 | Nc1n[nH]c2nnc(-c3c(-c4ccccc4)nn4ccccc34)cc12

Molecular target: Ribosomal protein S6 kinase alpha-3 (Homo sapiens) (UniProt P51812)
Sequence (P51812 whole entry): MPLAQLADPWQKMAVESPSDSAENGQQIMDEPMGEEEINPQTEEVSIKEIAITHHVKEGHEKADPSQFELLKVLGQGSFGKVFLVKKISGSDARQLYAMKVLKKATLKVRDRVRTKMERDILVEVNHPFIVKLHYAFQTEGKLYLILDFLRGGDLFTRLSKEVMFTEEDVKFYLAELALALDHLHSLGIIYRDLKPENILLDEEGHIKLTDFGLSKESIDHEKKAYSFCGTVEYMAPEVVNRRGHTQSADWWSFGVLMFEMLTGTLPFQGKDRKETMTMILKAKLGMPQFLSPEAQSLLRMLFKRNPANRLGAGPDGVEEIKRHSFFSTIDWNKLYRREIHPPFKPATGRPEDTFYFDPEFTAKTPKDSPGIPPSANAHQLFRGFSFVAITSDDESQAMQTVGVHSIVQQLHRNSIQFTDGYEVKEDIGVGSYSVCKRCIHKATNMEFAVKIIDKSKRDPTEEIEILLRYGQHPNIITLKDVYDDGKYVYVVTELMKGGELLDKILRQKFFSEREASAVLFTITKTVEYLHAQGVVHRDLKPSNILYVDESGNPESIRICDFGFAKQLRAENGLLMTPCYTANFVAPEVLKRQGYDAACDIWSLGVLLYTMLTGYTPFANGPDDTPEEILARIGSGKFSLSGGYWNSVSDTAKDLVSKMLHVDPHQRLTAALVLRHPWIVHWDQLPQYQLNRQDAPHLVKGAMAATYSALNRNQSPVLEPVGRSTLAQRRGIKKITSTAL

ΔTm [°C] | Compound
0.3 | O=C(O)c1cc(NCc2cc(O)ccc2O)ccc1O
1.7 | Nc1n[nH]c2nnc(-c3c(-c4ccccc4)nn4ccccc34)cc12

Molecular target: Serine/threonine-protein kinase 26 (Homo sapiens) (UniProt Q9P289)
Remark: another data set of the same source

ΔTm [°C] | Compound
-0.1 | O=C(O)c1cc(NCc2cc(O)ccc2O)ccc1O
-0.1 | Nc1n[nH]c2nnc(-c3c(-c4ccccc4)nn4ccccc34)cc12

Molecular target: Calcium/calmodulin-dependent protein kinase type 1D (Homo sapiens) (UniProt Q8IU85)

ΔTm [°C] | Compound
-0.1 | O=C(O)c1cc(NCc2cc(O)ccc2O)ccc1O
0.1 | Nc1n[nH]c2nnc(-c3c(-c4ccccc4)nn4ccccc34)cc12

Molecular target: Serine/threonine-protein kinase pim-1 (Homo sapiens) (UniProt P11309)

ΔTm [°C] | Compound
0 | O=C(O)c1cc(NCc2cc(O)ccc2O)ccc1O
1.1 | Nc1n[nH]c2nnc(-c3c(-c4ccccc4)nn4ccccc34)cc12

Molecular target: Dual specificity mitogen-activated protein kinase kinase 2 (Homo sapiens, UniProt P36507)
Sequence (P36507 whole entry): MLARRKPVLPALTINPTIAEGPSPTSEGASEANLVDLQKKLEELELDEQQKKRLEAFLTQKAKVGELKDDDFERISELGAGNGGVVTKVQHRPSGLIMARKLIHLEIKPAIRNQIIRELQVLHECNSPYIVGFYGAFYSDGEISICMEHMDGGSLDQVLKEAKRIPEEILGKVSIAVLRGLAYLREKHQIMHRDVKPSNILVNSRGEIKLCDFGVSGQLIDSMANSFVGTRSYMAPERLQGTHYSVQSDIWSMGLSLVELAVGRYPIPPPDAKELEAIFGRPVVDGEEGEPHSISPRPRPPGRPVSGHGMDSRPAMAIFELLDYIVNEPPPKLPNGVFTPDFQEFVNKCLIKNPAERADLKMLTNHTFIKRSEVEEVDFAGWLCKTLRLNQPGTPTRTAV

ΔTm [°C] | Compound
0.2 | O=C(O)c1cc(NCc2cc(O)ccc2O)ccc1O
0.7 | Nc1n[nH]c2nnc(-c3c(-c4ccccc4)nn4ccccc34)cc12

Molecular target: Serine/threonine-protein kinase OSR1 (Homo sapiens) (UniProt O95747)
Sequence (O95747 2-527 limits assumed): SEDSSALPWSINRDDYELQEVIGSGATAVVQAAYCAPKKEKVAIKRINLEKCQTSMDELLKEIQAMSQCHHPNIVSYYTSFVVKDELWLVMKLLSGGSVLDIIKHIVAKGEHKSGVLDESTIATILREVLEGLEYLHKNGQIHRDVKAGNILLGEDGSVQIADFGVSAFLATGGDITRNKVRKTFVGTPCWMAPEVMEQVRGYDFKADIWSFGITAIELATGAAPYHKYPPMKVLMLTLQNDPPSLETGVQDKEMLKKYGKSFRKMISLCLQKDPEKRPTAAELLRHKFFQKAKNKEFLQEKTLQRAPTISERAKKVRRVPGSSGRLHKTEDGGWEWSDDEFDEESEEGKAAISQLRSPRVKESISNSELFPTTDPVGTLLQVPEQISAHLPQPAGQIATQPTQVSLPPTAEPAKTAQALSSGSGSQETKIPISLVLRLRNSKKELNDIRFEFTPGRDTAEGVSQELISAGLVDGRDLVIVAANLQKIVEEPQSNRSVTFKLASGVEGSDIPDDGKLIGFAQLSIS

ΔTm [°C] | Compound
0 | O=C(O)c1cc(NCc2cc(O)ccc2O)ccc1O
0.3 | Nc1n[nH]c2nnc(-c3c(-c4ccccc4)nn4ccccc34)cc12

Molecular target: T3, Serine/threonine-protein kinase VRK1 (Homo sapiens) (UniProt Q99986)
T3 sequence (whole entry): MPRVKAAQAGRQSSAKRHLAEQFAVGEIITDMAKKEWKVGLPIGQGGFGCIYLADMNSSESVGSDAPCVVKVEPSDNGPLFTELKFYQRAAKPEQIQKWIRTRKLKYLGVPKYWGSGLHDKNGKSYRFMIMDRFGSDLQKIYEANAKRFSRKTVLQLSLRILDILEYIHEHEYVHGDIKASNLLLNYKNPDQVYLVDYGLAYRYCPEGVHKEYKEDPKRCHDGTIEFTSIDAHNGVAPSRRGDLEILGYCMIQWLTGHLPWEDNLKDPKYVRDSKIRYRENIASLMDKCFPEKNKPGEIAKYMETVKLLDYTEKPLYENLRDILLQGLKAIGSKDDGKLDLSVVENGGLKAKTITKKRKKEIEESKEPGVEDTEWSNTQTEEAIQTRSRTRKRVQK

ΔTm [°C] | Compound
-0.2 | O=C(O)c1cc(NCc2cc(O)ccc2O)ccc1O
-0.3 | Nc1n[nH]c2nnc(-c3c(-c4ccccc4)nn4ccccc34)cc12

Molecular target: Serine/threonine-protein kinase PAK 5 (Homo sapiens) (UniProt Q9P286)
Sequence (Q9P286 whole entry, looked up): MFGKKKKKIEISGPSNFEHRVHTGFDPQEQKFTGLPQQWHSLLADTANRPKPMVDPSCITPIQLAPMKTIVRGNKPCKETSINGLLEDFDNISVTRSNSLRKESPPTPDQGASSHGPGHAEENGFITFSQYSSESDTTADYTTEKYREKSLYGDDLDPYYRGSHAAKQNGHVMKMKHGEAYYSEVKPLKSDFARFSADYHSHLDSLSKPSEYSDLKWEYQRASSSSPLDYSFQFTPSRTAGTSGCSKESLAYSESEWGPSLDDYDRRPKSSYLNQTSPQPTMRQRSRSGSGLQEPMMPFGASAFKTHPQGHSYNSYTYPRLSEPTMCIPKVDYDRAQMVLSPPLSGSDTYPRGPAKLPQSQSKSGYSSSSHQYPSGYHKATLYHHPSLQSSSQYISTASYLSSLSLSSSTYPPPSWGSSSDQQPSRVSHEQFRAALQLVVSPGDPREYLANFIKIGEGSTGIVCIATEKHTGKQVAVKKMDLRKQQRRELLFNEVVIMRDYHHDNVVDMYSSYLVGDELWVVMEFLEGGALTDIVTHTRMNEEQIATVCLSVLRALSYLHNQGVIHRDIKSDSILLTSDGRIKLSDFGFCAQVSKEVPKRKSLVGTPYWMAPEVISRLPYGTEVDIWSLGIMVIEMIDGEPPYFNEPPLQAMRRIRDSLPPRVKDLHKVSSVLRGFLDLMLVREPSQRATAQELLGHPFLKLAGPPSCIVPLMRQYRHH

ΔTm [°C] | Compound
-0.3 | O=C(O)c1cc(NCc2cc(O)ccc2O)ccc1O
-0.4 | Nc1n[nH]c2nnc(-c3c(-c4ccccc4)nn4ccccc34)cc12

Molecular target: Calcium/calmodulin-dependent protein kinase type II subunit gamma (Homo sapiens) (UniProt Q13555)
Sequence (Q13555 whole entry): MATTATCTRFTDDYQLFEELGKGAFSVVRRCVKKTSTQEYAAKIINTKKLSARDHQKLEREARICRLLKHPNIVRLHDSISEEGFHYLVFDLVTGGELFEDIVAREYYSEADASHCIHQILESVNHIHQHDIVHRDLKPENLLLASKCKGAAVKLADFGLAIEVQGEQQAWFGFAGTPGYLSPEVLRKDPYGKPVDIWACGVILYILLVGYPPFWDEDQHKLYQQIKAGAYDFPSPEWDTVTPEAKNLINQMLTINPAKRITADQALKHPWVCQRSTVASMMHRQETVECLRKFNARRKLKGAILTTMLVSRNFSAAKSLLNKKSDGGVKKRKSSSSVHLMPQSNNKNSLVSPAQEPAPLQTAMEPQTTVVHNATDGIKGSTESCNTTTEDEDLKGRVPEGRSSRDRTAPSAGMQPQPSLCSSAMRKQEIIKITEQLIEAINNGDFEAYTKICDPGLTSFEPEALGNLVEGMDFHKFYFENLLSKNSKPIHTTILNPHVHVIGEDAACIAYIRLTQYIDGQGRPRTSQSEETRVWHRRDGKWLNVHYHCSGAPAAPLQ

ΔTm [°C] | Compound
0 | O=C(O)c1cc(NCc2cc(O)ccc2O)ccc1O
-0.1 | Nc1n[nH]c2nnc(-c3c(-c4ccccc4)nn4ccccc34)cc12

Molecular target: Dual specificity protein kinase CLK2 (Homo sapiens) (UniProt P49760)

ΔTm [°C] | Compound
-0.1 | O=C(O)c1cc(NCc2cc(O)ccc2O)ccc1O
0.5 | Nc1n[nH]c2nnc(-c3c(-c4ccccc4)nn4ccccc34)cc12

Molecular target: Calcium/calmodulin-dependent protein kinase type II subunit delta (Homo sapiens) (UniProt Q13557)
Sequence (Q13557 whole entry): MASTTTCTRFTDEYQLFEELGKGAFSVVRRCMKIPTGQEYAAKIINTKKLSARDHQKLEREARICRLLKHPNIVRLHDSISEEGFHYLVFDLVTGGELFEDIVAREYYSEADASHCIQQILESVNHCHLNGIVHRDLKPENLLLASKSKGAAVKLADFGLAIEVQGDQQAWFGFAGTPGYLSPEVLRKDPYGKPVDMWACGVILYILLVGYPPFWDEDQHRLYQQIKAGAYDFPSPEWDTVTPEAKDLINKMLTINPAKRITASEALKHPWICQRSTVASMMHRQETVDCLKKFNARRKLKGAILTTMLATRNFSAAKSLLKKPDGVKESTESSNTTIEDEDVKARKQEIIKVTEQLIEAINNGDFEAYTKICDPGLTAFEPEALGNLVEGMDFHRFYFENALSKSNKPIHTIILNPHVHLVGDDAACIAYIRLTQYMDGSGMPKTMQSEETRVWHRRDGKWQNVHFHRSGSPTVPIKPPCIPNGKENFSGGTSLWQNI

ΔTm [°C] | Compound
-0.2 | O=C(O)c1cc(NCc2cc(O)ccc2O)ccc1O
-0.6 | Nc1n[nH]c2nnc(-c3c(-c4ccccc4)nn4ccccc34)cc12

Molecular target: Cyclin-dependent kinase 2 (Homo sapiens, UniProt P24941)

ΔTm [°C] | Compound
0.4 | O=C(O)c1cc(NCc2cc(O)ccc2O)ccc1O
0.1 | Nc1n[nH]c2nnc(-c3c(-c4ccccc4)nn4ccccc34)cc12

Molecular target: Death-associated protein kinase 3 (Homo sapiens) (UniProt O43293)
Sequence (O43293 whole entry, looked up): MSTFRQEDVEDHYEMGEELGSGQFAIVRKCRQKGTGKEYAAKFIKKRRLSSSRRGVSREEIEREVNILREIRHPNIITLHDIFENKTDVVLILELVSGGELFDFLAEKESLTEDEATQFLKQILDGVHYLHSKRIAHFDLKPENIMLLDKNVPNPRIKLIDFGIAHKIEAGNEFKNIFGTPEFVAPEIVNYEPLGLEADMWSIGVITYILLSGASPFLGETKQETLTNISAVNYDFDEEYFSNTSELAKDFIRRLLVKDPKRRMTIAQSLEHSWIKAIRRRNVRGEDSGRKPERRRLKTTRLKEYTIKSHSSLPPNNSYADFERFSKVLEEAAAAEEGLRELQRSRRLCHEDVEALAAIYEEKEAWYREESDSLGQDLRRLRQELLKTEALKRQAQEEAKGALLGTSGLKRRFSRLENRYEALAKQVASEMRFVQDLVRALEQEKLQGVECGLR

Compound | ΔTm [°C]
O=C(O)c1cc(NCc2cc(O)ccc2O)ccc1O | -0.4
Nc1n[nH]c2nnc(-c3c(-c4ccccc4)nn4ccccc34)cc12 | 3.9

Molecular target: T4, Myotonin-protein kinase (Homo sapiens) (UniProt Q09013)
T4 sequence (whole entry): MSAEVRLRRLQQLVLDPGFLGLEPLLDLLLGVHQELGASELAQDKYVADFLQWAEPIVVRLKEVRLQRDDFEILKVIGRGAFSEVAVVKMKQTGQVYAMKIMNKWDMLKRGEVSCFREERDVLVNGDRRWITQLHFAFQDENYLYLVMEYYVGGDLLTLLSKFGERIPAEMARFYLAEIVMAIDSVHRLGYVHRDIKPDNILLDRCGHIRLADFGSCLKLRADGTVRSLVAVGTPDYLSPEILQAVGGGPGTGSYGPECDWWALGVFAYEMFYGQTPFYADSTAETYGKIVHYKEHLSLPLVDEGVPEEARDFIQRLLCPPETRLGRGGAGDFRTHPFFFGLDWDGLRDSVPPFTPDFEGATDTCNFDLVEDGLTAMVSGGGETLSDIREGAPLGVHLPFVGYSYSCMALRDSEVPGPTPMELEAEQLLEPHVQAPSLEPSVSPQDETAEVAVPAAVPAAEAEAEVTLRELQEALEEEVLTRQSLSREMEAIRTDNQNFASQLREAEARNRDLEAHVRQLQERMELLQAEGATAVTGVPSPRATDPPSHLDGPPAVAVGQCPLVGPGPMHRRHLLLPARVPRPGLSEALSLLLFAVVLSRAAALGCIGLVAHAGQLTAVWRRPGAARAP

ΔTm [°C] | Compound
0.3 | O=C(O)c1cc(NCc2cc(O)ccc2O)ccc1O
2.3 | Nc1n[nH]c2nnc(-c3c(-c4ccccc4)nn4ccccc34)cc12

Molecular target: Serine/threonine-protein kinase pim-2 (Homo sapiens, UniProt Q9P1W9)
Sequence (Q9P1W9 whole entry, looked up): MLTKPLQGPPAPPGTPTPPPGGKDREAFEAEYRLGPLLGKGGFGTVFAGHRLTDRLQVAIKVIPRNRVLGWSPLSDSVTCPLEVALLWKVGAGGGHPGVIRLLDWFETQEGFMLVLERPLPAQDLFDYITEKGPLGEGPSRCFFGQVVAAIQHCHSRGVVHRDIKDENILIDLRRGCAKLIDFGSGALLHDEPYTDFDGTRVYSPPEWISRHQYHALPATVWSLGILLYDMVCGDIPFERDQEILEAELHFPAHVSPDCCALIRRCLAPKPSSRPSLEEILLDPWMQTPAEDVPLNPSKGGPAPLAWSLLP

ΔTm [°C] | Compound
0.7 | O=C(O)c1cc(NCc2cc(O)ccc2O)ccc1O
0.6 | Nc1n[nH]c2nnc(-c3c(-c4ccccc4)nn4ccccc34)cc12

Molecular target: Mitogen-activated protein kinase 11 (Homo sapiens, UniProt Q15759)
Sequence (Q15759 whole entry): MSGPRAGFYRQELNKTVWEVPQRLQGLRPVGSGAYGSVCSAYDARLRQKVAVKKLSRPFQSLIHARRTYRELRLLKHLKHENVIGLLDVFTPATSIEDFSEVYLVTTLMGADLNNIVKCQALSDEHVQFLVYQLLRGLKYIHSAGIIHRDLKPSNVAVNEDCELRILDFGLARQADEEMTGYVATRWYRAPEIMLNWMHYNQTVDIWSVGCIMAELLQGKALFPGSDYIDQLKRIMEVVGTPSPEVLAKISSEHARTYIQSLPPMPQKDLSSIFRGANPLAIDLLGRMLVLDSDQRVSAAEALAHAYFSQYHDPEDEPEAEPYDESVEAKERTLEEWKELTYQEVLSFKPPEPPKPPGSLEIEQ

ΔTm [°C] | Compound
0.2 | O=C(O)c1cc(NCc2cc(O)ccc2O)ccc1O
4.5 | Nc1n[nH]c2nnc(-c3c(-c4ccccc4)nn4ccccc34)cc12
